Results reported in patent publication US4667032A, “Phenothiazone derivatives and analogs” (Merck Frosst Canada, Inc., priority 1985, dated 1987).
Values after ≈ are worked out from the molar mass of the structure shown.

Tests used:
[1] = system: tracheal chain of sensitized guinea pigs; assay: Antigen Challenge 'in vitro' Assay (egg albumin contraction of sensitized guinea pig tracheal chain)
Description: Male guinea pigs weighing 300-350 g were sensitized by injecting (I.P.) 0.5 ml of a suspension containing 0.4 mg of egg albumin (Ovalbumin, Grade V, Sigma Chemical Co.) and 4.0 g aluminum hydroxide in 19.6 ml of saline. Two weeks were permitted for sensitization to occur.
Three sensitized guinea pigs were stunned and exsanguinated. The tracheas were removed, freed of adhering tissue and divided longitudinally by cutting through the cartilaginous tissue directly opposite the muscle insertion. Each opened trachea was then transected between every second cartilage. Four of the cut sections were tied together, end to end, in a series with No. 7 silk thread ensuring that the tracheal muscles were all in the same vertical plane. Thus, each chain consisted of tissue from three different animals.
The chain so formed was then suspended under 1 g of tension (by silk ties at each end) in a 20 ml organ bath containing 10 ml of modified* Krebs-Henseleit buffer solution gassed with 95% O2 and 5% CO2 at 37° C. Mepyramine (0.55 μg/ml) and indomethacin (2.67 μg/ml) were added to the buffer to avoid the contribution of histamine receptors and cyclooxygenase products to the contraction. To record responses one end of the tracheal chain was attached to a Gould-Statham UC-2 force displacement transducer which was connected to a Beckman Type R-dynograph.The preparations were allowed to equilibrate for one hour during which time the tissues were automatically washed (10 ml volume displacement) every 6 minutes.
After the equilibration period the tissues were primed with methacholine (3 μg/ml; 1.5×10^-5 M), washed and allowed to recover to baseline. The tissues were treated again with a second dose of methacholine, washed, allowed to return to baseline and washed for an additional hour.
Two chains were used as a control. These were incubated in a concentration of egg albumin sufficient to induce an average contraction of 50-80% of the methacholine response.
Each compound to be tested was added to two other baths (at a final concentration in each bath of 10 μg/ml) 15 minutes prior to challenging the fresh chains with egg albumin.
The response of the challenged tissue was expressed as a percentage of the methacholine maximum. The % inhibition for each compound was then calculated. Compounds which at 10 μg/ml (final conc.) inhibited the egg albumin response by 50% or more were retested at a lower concentration.

5-Lipoxygenase = molecular target: T1, 5-Lipoxygenase (Rattus norvegicus, UniProt P12527); assay: RBL-1 5-Lipoxygenase; format: biochemical; details: for IC50: Table 4, first part
T1 construct: Rat basophilic leukemia (RBL-1) cells were sonicated and centrifuged at 125000 xg; endogenous in cells; host or cells: RBL-1 (rat basophilic leukemia) cells, 125000 xg supernatant of sonicate
T1 sequence (P12527 1-673): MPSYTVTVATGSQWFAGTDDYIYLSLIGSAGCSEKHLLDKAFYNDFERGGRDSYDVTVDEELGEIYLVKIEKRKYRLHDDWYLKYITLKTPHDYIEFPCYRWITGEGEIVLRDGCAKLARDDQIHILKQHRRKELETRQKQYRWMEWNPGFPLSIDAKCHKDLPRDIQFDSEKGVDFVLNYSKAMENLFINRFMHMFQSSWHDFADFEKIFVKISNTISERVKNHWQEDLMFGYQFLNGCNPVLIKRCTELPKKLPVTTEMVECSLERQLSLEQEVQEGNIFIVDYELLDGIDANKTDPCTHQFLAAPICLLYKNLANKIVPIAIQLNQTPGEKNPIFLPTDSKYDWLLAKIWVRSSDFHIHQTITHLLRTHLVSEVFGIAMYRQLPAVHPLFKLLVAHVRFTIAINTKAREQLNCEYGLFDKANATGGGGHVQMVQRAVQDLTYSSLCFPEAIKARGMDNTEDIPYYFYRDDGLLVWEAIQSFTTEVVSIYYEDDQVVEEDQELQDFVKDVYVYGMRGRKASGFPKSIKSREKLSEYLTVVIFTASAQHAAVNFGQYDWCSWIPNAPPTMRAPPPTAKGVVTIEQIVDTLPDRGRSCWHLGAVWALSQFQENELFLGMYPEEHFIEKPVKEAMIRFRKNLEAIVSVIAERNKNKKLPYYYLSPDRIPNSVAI
Description: Rat basophilic leukemia (RBL-1) cells were sonicated and centrifuged at 125000 xg. The resulting supernatant fraction was incubated with arachidonic acid (labelled with ^14 C) to convert a portion of it to ^14 C-5(S)-hydroxyicosatetraenoic acid (5-HETE). Compounds being evaluated as inhibitors of 5-Lipoxygenase were added prior to the addition of arachidonic acid. 5-HETE was isolated by extraction and paper chromatography, and quantitated by determining the amount of radioactivity (cpm) associated with 5-HETE.
Reference: Egan, R. W., Tischler, A. M. Baptista, E. H., Ham, E. A., Soderman, D. D., and Gale, P. H., Advances in Prostaglandin, Thromboxane and Leukotriene Research 11 151 (1983), (Samuelson, B., Ramwell, P. W., and Paoletti, R. (eds.), Raven Press, N.Y.

[2] = system: Mouse peritoneal macrophages; assay: Mouse Macrophage Assay (leukotriene C4 / PGE2 / 6-keto PGF1α formation, zymosan stimulated); format: cell-based; details: Table 4, first part
Description: Mouse peritoneal macrophages were treated sequentially with arachidonic acid (labelled with tritium); the compound being evaluated as an inhibitor, and a stimulator (zymosan). Metabolites derived from arachidonic acid PGE2 6-keto PH-F1α and leukotriene C4) were separated from the incubation medium by extraction and chromatography, and then quantitated by determining the amount of radioactivity (cpm) associated with each of them. […] (This protocol is identical to that described in the reference except that the radioactivity herein associated with the LTC4 was determined by counting an aliquot of the final aqueous solution directly rather than chromatographing it first).
Reference: Humes, J. L. et al., J. Biol. Chem. 257, 1591-4, (1982).

Row | SMILES | In Vitro Antigen Challenge Test % Inhibition ([1]; 0.3 μg (μg/ml)) [%] | In Vitro Antigen Challenge Test % Inhibition ([1]; 1 μg (μg/ml)) [%] | In Vitro Antigen Challenge Test % Inhibition ([1]; 10 μg (μg/ml)) [%] | IC50 (5-Lipoxygenase) [µM] | IC50 [2] [µg/mL] | inhibition at 0.05 µg/mL (5-Lipoxygenase; at 0.05 μg/ml, read-out: RBL-1, % at stated concentration) [%]
1 | O=c1ccc2nc3ccccc3sc-2c1 [Test No. 4] | 42 | 77 | 100 | 0.0469 | 0.1 (≈ 0.469 µM) | –
2 | O=c1c(Cl)cc2nc3ccccc3sc-2c1Cl [Test No. 5] | – | – | – | – | – | 65
3 | O=c1ccc2nc3ccccc3sc-2c1Cl [drawing 26] | – | 44 | 100 | 0.0404 | 0.2 (≈ 0.807 µM) | –
